“Also recorded” adds a separate entry of the source. Non-standard residues stand in square brackets, D forms with d. Residues, ends and D or L forms follow the SMILES beside them. No end group written: not given here. NMeF = CN[C@@H](Cc1ccccc1)C(=O)O; NMeL = CN[C@@H](CC(C)C)C(=O)O; NMeV = CN[C@H](C(=O)O)C(C)C; Nle = CCCC[C@H](N)C(=O)O
What was measured:
IAPP = target: T1, IAPP (Homo sapiens, UniProt P10997); assay: MTT reduction assay of IAPP-mediated cell damage in RIN5fm cells; type: cell-based; settings: for Effect on formation of cytotoxic IAPP assemblies (MTT reduction): aged (24 h or 7 days) IAPP/peptide 1/2 solutions; for IC50: read-out: IC50 (±SD) of inhibitory effects of ACMs on IAPP-mediated cell damage
T1 construct: made in house; host or cells: chemical synthesis (Fmoc-SPPS), air-oxidised, RP-HPLC purified
T1 sequence (P10997 34-70 limits assumed): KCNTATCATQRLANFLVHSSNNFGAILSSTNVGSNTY
Protocol: Briefly, cells were cultivated and platted in 96-well plates. Aliquots of solutions used for the ThT binding assays (see “ThT binding assays”) were diluted with cell medium at the indicated incubation time points (24 h or 7 days) and added to the cells at the indicated final concentrations. Following incubation with the cells for ˜20 h (37° C., humidified atmosphere, 5% CO2) cell damage was assessed by measuring cellular MTI reduction. IC50 values were determined.

Aβ42 [1] = target: T2, Aβ42 (Homo sapiens, UniProt P05067); assay: cell-based; settings: read-out: IC50 (±SD) of inhibitory effects of ACMs on Aβ42-mediated cell damage
T2 construct: the 40(42)-residue peptide Aβ40(42); made in house; host or cells: chemical synthesis (Fmoc-SPPS), monomer isolated by SEC
Protocol: Following incubation with the cells for ˜20 h (37° C., humidified atmosphere, 5% CO2), cell damage was assessed by measuring cellular MTT reduction.
Solutions were aged for 1.5 h (37° C., shaking 500 rpm). Aliquots were diluted with cell medium, incubated with PC12 cells at the indicated final concentrations for ˜20 h and cellular MTT reduction was measured as above.

[2] = test system: Aβ42-mediated LTP impairment; assay: Hippocampal long-term potentiation (LTP) measurements in murine hippocampal slices ex vivo; design: species or system mouse; settings: Aβ42 oligomers 50 nM, 24 h aged, 30° C.; oligomers/ACM 1/10
Protocol: LTP measurements were performed. Briefly, sagittal hippocampal slices (350 μm) were obtained from C57BL/6N male mice (6-8 weeks) in ice-cold Ringer solution bubbled with a mixture of 95% O2 and 5% CO2 and according to protocols approved by the ethical committee on animal care and use of the government of Bavaria Germany. Extracellular recordings were performed using artificial cerebrospinal fluid (ACSF)-filled glass microelectrodes (2-3 MW) at RT. […] Field excitatory postsynaptic potentials (fEPSPs) were evoked in the hippocampal CA1 dendritic region via two independent inputs by stimulating the Schaffer collateral commissural pathway (Scep). For LTP induction, high-frequency stimulation (HFS; 100 Hz/100 pulses) conditioning pulses were delivered to the same Seep inputs. Both stimulating electrodes were used to utilize the input specificity of LTP, thus allowing for the measurement of an internal control within the same slice. […] Responses were measured for 60 min after HFS. […] Data analysis by 1-way ANOVA and Bonferroni's multiple comparison test.

[3] = test system: cultured murine BV2 microglia; assay: Phagocytosis of Aβ42 species with or without ACM; type: cell-based, mouse; settings: 1/1, co-incubation 2 h
Protocol: Briefly, BV2 cells were maintained in GlutaMAX-supplemented RPMI1640 medium containing 10% FBS and 1% penicillin/streptomycin on poly-L-ornithine-coated flasks. For the phagocytosis assay, BV2 cells were seeded into 24-well plates containing coverslips in serum-free RPMI1640-GlutaMAX and further incubated for 24 h (5% CO2, 37° C.) to reach 10000 cells/well. Primary BMDMs were obtained from bone-marrow monocytes isolated from wildtype C57BL/6 mice, plated in 24-well plates at a density of 10000cells/well, and differentiated with L929 cell-conditioned medium (RPMI1640, 10% FBS, 1% penicillin/streptomycin) for 7 days. Thereafter, cells were incubated with aged peptide solutions at 37° C. for 6 h. […]
Following incubation of the cells with the peptides, supernatants were removed and cells on the coverslips were washed 5 times with ice-cold 1×PBS, fixed with 4% paraformaldehyde, washed with 1×PBS, permeabilized with 0.2% Triton-X 100, and rinsed three times with cold 1×PBS. […] Images were acquired using a Leica DMi8 fluorescence microscope. The percentage of cells that had taken up peptides was calculated by dividing the number of BV2 cells or BMDMs that phagocytosed TAMRA-labeled peptide by the total cell count, multiplied by 100. Significance was analyzed by unpaired student's t-test.

Aβ42 [4] = target: T2, Aβ42; assay: ThT binding assay of Aβ42 fibrillogenesis (self-assembly, seeding, cross-seeding); type: biochemical; settings: Aβ42 5 μM, Aβ42/peptide 1/1
Protocol: Aβ42 fibrillogenesis-related studies. […] Peptide incubations were performed in the presence of ThT in 96-well black MTPs (FluoroNunc, Thermo Fisher Scientific). […] Values of seeds or buffer alone were subtracted from the data in self-/cross-seeding assays; all other data shown are raw data except for data in FIG. 27b which were normalized).
Incubations (37° C.) and determination of ThT fluorescence were performed as for all other Aβ42-related studies.

Compound	Effect on formation of cytotoxic IAPP assemblies (MTT reduction) (IAPP; RIN5fm cells)	IC50 (IAPP) [nM]	IC50 (Aβ42 [1]) [nM]	Effect on LTP impairment mediated by preformed Aβ42 oligomers [2]	Effect of addition to TAMRA-oAβ42 on Aβ42 phagocytosis [3]	Effect on Aβ42 fibrillogenesis / amyloid self-assembly (ThT binding) (Aβ42 [4])	Effect of addition to preformed fIAPP on fIAPP cytotoxicity (MTT reduction) (IAPP; RIN5fm cells, ACM 33 μM added to fIAPP […], 1 day, fIAPP 500 nM)
CCCC[C@H](NC(=O)[C@H](CC(=O)O)NC(=O)[C@H](CCC(=O)O)NC(=O)[C@H](C)NC(=O)[C@H](Cc1ccccc1)NC(=O)[C@H](Cc1ccccc1)N(C)C(=O)[C@@H](NC(=O)[C@H](CC(C)C)N(C)C(=O)[C@H](CCCCN)NC(=O)[C@@H](N)CCC(N)=O)C(C)C)C(=O)N[C@@H](CCCC)C(=O)N[C@@H](CCCC)C(=O)N[C@@H](CC(N)=O)C(=O)N[C@@H](CCCCN)C(=O)NCC(=O)N[C@@H](C)C(=O)N[C@H](C(=O)N[C@H](C(=O)NCC(=O)N[C@@H](CC(C)C)C(=O)N[C@@H](CCCC)C(=O)N[C@H](C(=O)NCC(=O)NCC(=O)N[C@H](C(=O)N[C@H](C(=O)O)C(C)C)C(C)C)C(C)C)[C@@H](C)CC)[C@@H](C)CC [Nle3-LF] (H-QK[NMeL]V[NMeF]FAED[Nle][Nle][Nle]NKGAIIGL[Nle]VGGVV-OH)	fully suppressed; also recorded: suppress formation of toxic IAPP assemblies	82.1					
CCCC[C@H](NC(=O)[C@H](CC(C)C)NC(=O)CNC(=O)[C@@H](NC(=O)[C@@H](NC(=O)[C@H](C)NC(=O)CNC(=O)[C@H](CCCCN)NC(=O)[C@H](CC(N)=O)NC(=O)[C@H](CC(C)C)NC(=O)[C@H](CC(C)C)NC(=O)[C@H](CC(C)C)NC(=O)[C@H](CC(=O)O)NC(=O)[C@H](CCC(=O)O)NC(=O)[C@H](C)NC(=O)[C@H](Cc1ccccc1)N(C)C(=O)[C@H](Cc1ccccc1)NC(=O)[C@H](C(C)C)N(C)C(=O)[C@H](CC(C)C)NC(=O)[C@H](CCCCN)NC(=O)[C@@H](N)CCC(N)=O)[C@@H](C)CC)[C@@H](C)CC)C(=O)N[C@H](C(=O)NCC(=O)NCC(=O)N[C@H](C(=O)N[C@H](C(=O)O)C(C)C)C(C)C)C(C)C [L3-VF] (H-QKL[NMeV]F[NMeF]AEDLLLNKGAIIGL[Nle]VGGVV-OH)	fully suppressed; also recorded: suppress formation of toxic IAPP assemblies	113	261	suppress LTP impairment mediated by preformed Aβ42 oligomers	increased Aβ42 phagocytosis		
Nle3-LVFF: 4-fold N-methylated Nle3-VF analog; N-methylation of all four residues of segment LVFF (QK[NMeL][NMeV][NMeF][NMeF]AED[Nle][Nle][Nle]NKGAIIGL[Nle]VGGVV)						blocks amyloid self-assembly of Aβ42	
CCCC[C@H](NC(=O)[C@H](CC(C)C)NC(=O)CNC(=O)[C@@H](NC(=O)[C@@H](NC(=O)[C@H](C)NC(=O)CNC(=O)[C@H](CCCCN)NC(=O)[C@H](CC(N)=O)NC(=O)[C@H](CC(C)C)NC(=O)[C@H](CC(C)C)NC(=O)[C@H](CC(C)C)NC(=O)[C@H](CC(=O)O)NC(=O)[C@H](CCC(=O)O)NC(=O)[C@H](C)NC(=O)[C@H](Cc1ccccc1)NC(=O)[C@H](Cc1ccccc1)N(C)C(=O)[C@@H](NC(=O)[C@H](CC(C)C)N(C)C(=O)[C@H](CCCCN)NC(=O)[C@@H](N)CCC(N)=O)C(C)C)[C@@H](C)CC)[C@@H](C)CC)C(=O)N[C@H](C(=O)NCC(=O)NCC(=O)N[C@H](C(=O)N[C@H](C(=O)O)C(C)C)C(C)C)C(C)C [L3-LF] (H-QK[NMeL]V[NMeF]FAEDLLLNKGAIIGL[Nle]VGGVV-OH)	fully suppressed; also recorded: suppress formation of toxic IAPP assemblies	133					
CCCC[C@H](NC(=O)[C@H](CC(C)C)NC(=O)CNC(=O)[C@@H](NC(=O)[C@@H](NC(=O)[C@H](C)NC(=O)CNC(=O)[C@H](CCCCN)NC(=O)[C@H](CC(N)=O)NC(=O)[C@H](Cc1ccccc1)NC(=O)[C@H](Cc1ccccc1)NC(=O)[C@H](Cc1ccccc1)NC(=O)[C@H](CC(=O)O)NC(=O)[C@H](CCC(=O)O)NC(=O)[C@H](C)NC(=O)[C@H](Cc1ccccc1)N(C)C(=O)[C@H](Cc1ccccc1)NC(=O)[C@H](C(C)C)N(C)C(=O)[C@H](CC(C)C)NC(=O)[C@H](CCCCN)NC(=O)[C@@H](N)CCC(N)=O)[C@@H](C)CC)[C@@H](C)CC)C(=O)N[C@H](C(=O)NCC(=O)NCC(=O)N[C@H](C(=O)N[C@H](C(=O)O)C(C)C)C(C)C)C(C)C [F3-VF] (H-QKL[NMeV]F[NMeF]AEDFFFNKGAIIGL[Nle]VGGVV-OH)	fully suppressed; also recorded: suppress formation of toxic IAPP assemblies	78.5	1030				does not affect fIAPP cytotoxicity
CCCC[C@H](NC(=O)[C@H](CC(C)C)NC(=O)CNC(=O)[C@@H](NC(=O)[C@@H](NC(=O)[C@H](C)NC(=O)CNC(=O)[C@H](CCCCN)NC(=O)[C@H](CC(N)=O)NC(=O)[C@H](Cc1ccccc1)NC(=O)[C@H](Cc1ccccc1)NC(=O)[C@H](Cc1ccccc1)NC(=O)[C@H](CC(=O)O)NC(=O)[C@H](CCC(=O)O)NC(=O)[C@H](C)NC(=O)[C@H](Cc1ccccc1)NC(=O)[C@H](Cc1ccccc1)N(C)C(=O)[C@@H](NC(=O)[C@H](CC(C)C)N(C)C(=O)[C@H](CCCCN)NC(=O)[C@@H](N)CCC(N)=O)C(C)C)[C@@H](C)CC)[C@@H](C)CC)C(=O)N[C@H](C(=O)NCC(=O)NCC(=O)N[C@H](C(=O)N[C@H](C(=O)O)C(C)C)C(C)C)C(C)C [F3-LF] (H-QK[NMeL]V[NMeF]FAEDFFFNKGAIIGL[Nle]VGGVV-OH)	fully suppressed; also recorded: suppress formation of toxic IAPP assemblies	41.7	262	suppress LTP impairment mediated by preformed Aβ42 oligomers			

Reference: patent US20250161408A1, “PEPTIDIC INHIBITORS OF AMYLOID SELF- AND CROSS-ASSEMBLY” (TECHNISCHE UNIVERSITÄT MÜNCHEN, priority 2022, published 2025)
